The values below come from patent publication US20040254162A1, “Oxazolidinone derivatives as antimicrobials” (priority 2001, published 2004).

Holding throughout (test): MIC, agar incorporation method
One assay relates to VRE 6A (Ent. faecium 6A). To be noted: agar incorporation.
The test system of a further assay is S. aureus ATCC 25923. To be noted: agar incorporation.
A further assay concerns Strep. pyog. ATCC 19615. The following applies: agar incorporation.
Another assay deals with Strep. pne. ATCC 6303. The following applies: agar incorporation.
The test system of another assay is MRSA 15187. The following applies: agar incorporation.
The next assay relates to Ent. faecalis ATCC 29212. To be noted: agar incorporation.
Another assay has as its system MRSA 33. To be noted: agar incorporation.
A further assay relates to MRSA 562. To be noted: agar incorporation; Table 1.
For the next assay, the system named is S. pneum AB 34. To be noted: agar incorporation.

Values after ≈ are worked out from the molar mass of the structure shown.

In the case of `CC(=O)NC[C@H]1CN(c2ccc(N3CCN(Cc4ccc(C=O)o4)CC3)c(F)c2)C(=O)O1` [Compound No. 02, (S)-N-[[3-[3-Fluoro-4-[N-1[4-{2-furyl(5-formyl)methyl}]piperazinyl]phenyl]-2-oxo-5-oxazolidinyl]methyl]acetamide], in the assay on VRE 6A (Ent. faecium 6A), the “MIC VRE 6A” value worked out at 8 µg/mL (≈ 18 µM). Also, in the assay on S. aureus ATCC 25923, the “MIC S. aureus 25923” value was found to be 1 µg/mL (≈ 2.25 µM). Besides, in the assay on Strep. pyog. ATCC 19615, the “MIC S. pyogenes 19615” value came out at 8 µg/mL (≈ 18 µM). The “MIC S. pneum 6303” value in the assay with Strep. pne. ATCC 6303 was found to be 4 µg/mL (≈ 9 µM). In addition, the “MIC MRSA 15187” value in the assay with MRSA 15187 came to 2 µg/mL (≈ 4.5 µM). Moreover, in the assay with Ent. faecalis ATCC 29212, the “MIC E. faecalis 29212” value is 8 µg/mL (≈ 18 µM). Besides, the “MIC MRSA 33” value against MRSA 33 turned out to be 2 µg/mL (≈ 4.5 µM). In addition, the “MIC MRSA 562” value in the assay with MRSA 562 is 1 µg/mL (≈ 2.25 µM). In the assay on S. pneum AB 34, the “MIC S. pneum AB 34” value came out at 8 µg/mL (≈ 18 µM).
Turning to `CC(=O)NC[C@H]1CN(c2ccc(N3C[C@@H]4[C@@H](CN(C)C(=O)Cc5cccs5)[C@@H]4C3)c(F)c2)C(=O)O1` [Compound No. 38, (S)-N-[[3-[3-Fluoro[4-[3-(1α,5α,6α)-6-[N-(2-thiopheneacetyl)-N-methyl]amino-methyl]-3-azabicyclo-[3.1.0]hexane]phenyl]-2-oxo-5-oxazolidinyl]methyl]acetamide], the “MIC VRE 6A” value with VRE 6A (Ent. faecium 6A) is 4 µg/mL (≈ 7.99 µM). Further, in the assay with S. aureus ATCC 25923, the “MIC S. aureus 25923” value was determined as 4 µg/mL (≈ 7.99 µM). For the same compound, the “MIC S. pyogenes 19615” value with Strep. pyog. ATCC 19615 came out at 1 µg/mL (≈ 2 µM). In the assay on Strep. pne. ATCC 6303, the “MIC S. pneum 6303” value is 1 µg/mL (≈ 2 µM). For the same compound, the “MIC MRSA 15187” value with MRSA 15187 came out at 4 µg/mL (≈ 7.99 µM). Further, the “MIC E. faecalis 29212” value against Ent. faecalis ATCC 29212 turned out to be 4 µg/mL (≈ 7.99 µM). Besides, the “MIC MRSA 33” value in the assay on MRSA 33 was determined as 4 µg/mL (≈ 7.99 µM). Also, the “MIC MRSA 562” value against MRSA 562 stood at 4 µg/mL (≈ 7.99 µM). Also, in the assay with S. pneum AB 34, the “MIC S. pneum AB 34” value was 1 µg/mL (≈ 2 µM).
Consider `CC(=O)NC[C@H]1CN(c2ccc(N3CCN(Cc4cc(Br)cs4)CC3)c(F)c2)C(=O)O1` [Compound No. 14, (S)-N-[[3-[3-Fluoro-4-[N-1[4-{2-thienyl(4-bromo)methyl}]piperazinyl]phenyl]-2-oxo-5-oxazolidinyl]methyl]acetamide], for which, in the assay with VRE 6A (Ent. faecium 6A), the “MIC VRE 6A” value came to 2 µg/mL (≈ 3.91 µM). In addition, in the assay on S. aureus ATCC 25923, the “MIC S. aureus 25923” value amounted to 4 µg/mL (≈ 7.82 µM). The “MIC S. pyogenes 19615” value against Strep. pyog. ATCC 19615 turned out to be 2 µg/mL (≈ 3.91 µM). Further, the “MIC S. pneum 6303” value with Strep. pne. ATCC 6303 was 4 µg/mL (≈ 7.82 µM). The “MIC MRSA 15187” value against MRSA 15187 stood at 2 µg/mL (≈ 3.91 µM). Further, the “MIC E. faecalis 29212” value with Ent. faecalis ATCC 29212 worked out at 2 µg/mL (≈ 3.91 µM). Further, in the assay on MRSA 33, the “MIC MRSA 33” value was determined as 2 µg/mL (≈ 3.91 µM). In addition, the “MIC MRSA 562” value in the assay with MRSA 562 was found to be 2 µg/mL (≈ 3.91 µM). In the assay with S. pneum AB 34, the “MIC S. pneum AB 34” value is 4 µg/mL (≈ 7.82 µM).
`CC(=O)NC[C@H]1CN(c2ccc(N3CCN(Cc4cccs4)CC3)c(F)c2)C(=O)O1` [Compound No. 12, (S)-N-[[3-[3-Fluoro-4-[N-1[4-(2-thienylmethyl)]piperazinyl]phenyl]-2-oxo-5-oxazolidinyl]methyl]acetamide]: the “MIC VRE 6A” value with VRE 6A (Ent. faecium 6A) was found to be 8 µg/mL (≈ 18.5 µM). Also, the “MIC S. aureus 25923” value against S. aureus ATCC 25923 amounted to 8 µg/mL (≈ 18.5 µM). The “MIC S. pyogenes 19615” value in the assay with Strep. pyog. ATCC 19615 stood at 4 µg/mL (≈ 9.25 µM). In addition, in the assay on Strep. pne. ATCC 6303, the “MIC S. pneum 6303” value was found to be 8 µg/mL (≈ 18.5 µM). The “MIC MRSA 15187” value against MRSA 15187 was 8 µg/mL (≈ 18.5 µM). Besides, in the assay with Ent. faecalis ATCC 29212, the “MIC E. faecalis 29212” value was 8 µg/mL (≈ 18.5 µM). The “MIC MRSA 33” value against MRSA 33 worked out at 8 µg/mL (≈ 18.5 µM). Moreover, the “MIC MRSA 562” value in the assay on MRSA 562 came out at 8 µg/mL (≈ 18.5 µM). In addition, the “MIC S. pneum AB 34” value in the assay with S. pneum AB 34 is 8 µg/mL (≈ 18.5 µM).
Turning to `CC(=O)NC[C@H]1CN(c2ccc(N3C[C@@H]4[C@H](C3)[C@H]4N(C)Cc3ccc([N+](=O)[O-])s3)c(F)c2)C(=O)O1` [Compound No. 34, (S)-N-[[3-[3-Fluoro[4-[3-(1α,5α,6α)-6-[N-(5-nitro-2-thienylmethyl)-N-methyl]-amino]-3-azabicyclo-[3.1.0]hexane]phenyl]-2-oxo-5-oxazolidinyl]methyl]acetamide], the “MIC VRE 6A” value in the assay with VRE 6A (Ent. faecium 6A) was 1 µg/mL (≈ 1.99 µM). In addition, the “MIC S. aureus 25923” value in the assay on S. aureus ATCC 25923 was 1 µg/mL (≈ 1.99 µM). Also, the “MIC S. pyogenes 19615” value against Strep. pyog. ATCC 19615 amounted to 2 µg/mL (≈ 3.97 µM). Besides, in the assay with Strep. pne. ATCC 6303, the “MIC S. pneum 6303” value came to 4 µg/mL (≈ 7.94 µM). For the same compound, the “MIC MRSA 15187” value in the assay with MRSA 15187 worked out at 1 µg/mL (≈ 1.99 µM). In addition, in the assay with Ent. faecalis ATCC 29212, the “MIC E. faecalis 29212” value is 1 µg/mL (≈ 1.99 µM). Further, in the assay on MRSA 33, the “MIC MRSA 33” value was 1 µg/mL (≈ 1.99 µM). In the assay with MRSA 562, the “MIC MRSA 562” value amounted to 1 µg/mL (≈ 1.99 µM). Besides, the “MIC S. pneum AB 34” value with S. pneum AB 34 turned out to be 4 µg/mL (≈ 7.94 µM).
